Measurements: the supplement of paper PMC10307832

Key:
Assay in all cases: relative viability (nuclei count vs DMSO), 5 days (fraction); higher = more cells survive
AGI-6780 + Linsitinib = compound: O=C(Nc1cccc(C(F)(F)F)c1)Nc1cc(S(=O)(=O)NC2CC2)ccc1-c1ccsc1 [AGI-6780] + C[C@]1(O)C[C@@H](c2nc(-c3ccc4ccc(-c5ccccc5)nc4c3)c3c(N)nccn32)C1 [Linsitinib] (partner 1 µM)
How it was run: (§1)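 A single step with final 0.05% Triton X-100, 1% formaldehyde and 1 ug/ml Hoechst fixed the cells and stained nuclei 5 days after treatment. Lung cancer cell lines in 1536-well plates had been treated by pin tool the day after seeding with one drug alone or a fixed anchor-drug dose plus five library-drug doses (not always all listed) in √10 steps, and nuclei were counted on 4× images. Relative viability is the ratio of nuclei in treated wells to nuclei in vehicle wells, taken as the median of duplicate plates.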

AGI-6780 + Pemetrexed = compound: O=C(Nc1cccc(C(F)(F)F)c1)Nc1cc(S(=O)(=O)NC2CC2)ccc1-c1ccsc1 [AGI-6780] + Nc1nc2[nH]cc(CCc3ccc(C(=O)N[C@@H](CCC(=O)O)C(=O)O)cc3)c2c(=O)[nH]1 [Pemetrexed] (partner 0.2 µM)
How it was run: as §1

AGI-6780 + Vorinostat = compound: O=C(Nc1cccc(C(F)(F)F)c1)Nc1cc(S(=O)(=O)NC2CC2)ccc1-c1ccsc1 [AGI-6780] + O=C(CCCCCCC(=O)Nc1ccccc1)NO [Vorinostat] (partner 1 µM)
How it was run: as §1

AGI-6780 + Olaparib = compound: O=C(Nc1cccc(C(F)(F)F)c1)Nc1cc(S(=O)(=O)NC2CC2)ccc1-c1ccsc1 [AGI-6780] + O=C(c1cc(Cc2n[nH]c(=O)c3ccccc23)ccc1F)N1CCN(C(=O)C2CC2)CC1 [Olaparib] (partner 8 µM)
How it was run: as §1

Row | Cell Line | relative viability (AGI-6780 + Linsitinib; first compound 0.08 µM) | relative viability (AGI-6780 + Linsitinib; first compound 0.253 µM) | relative viability (AGI-6780 + Linsitinib; first compound 0.8 µM) | relative viability (AGI-6780 + Linsitinib; first compound 2.53 µM) | relative viability (AGI-6780 + Linsitinib; first compound 8 µM) | relative viability (AGI-6780 + Pemetrexed; first compound 0.253 µM) | relative viability (AGI-6780 + Pemetrexed; first compound 0.8 µM) | relative viability (AGI-6780 + Pemetrexed; first compound 2.53 µM) | relative viability (AGI-6780 + Pemetrexed; first compound 8 µM) | relative viability (AGI-6780 + Vorinostat; first compound 0.253 µM) | relative viability (AGI-6780 + Vorinostat; first compound 0.8 µM) | relative viability (AGI-6780 + Vorinostat; first compound 2.53 µM) | relative viability (AGI-6780 + Vorinostat; first compound 8 µM) | relative viability (AGI-6780 + Olaparib; first compound 0.253 µM) | relative viability (AGI-6780 + Olaparib; first compound 0.8 µM) | relative viability (AGI-6780 + Olaparib; first compound 2.53 µM) | relative viability (AGI-6780 + Olaparib; first compound 8 µM) | relative viability (AGI-6780 + Pemetrexed; first compound 0.08 µM) | relative viability (AGI-6780 + Vorinostat; first compound 0.08 µM) | relative viability (AGI-6780 + Olaparib; first compound 0.08 µM)
1 | NCI-H322M | 0.883 | 0.969 | 1.03 | 0.772 | 0.878 | 0.669 | 0.622 | 0.636 | 0.585 | 0.956 | 1.03 | 0.855 | 0.855 | 0.773 | 0.744 | 0.747 | 0.874 |  |  | 
2 | NCI-H358 | 0.792 | 0.721 | 0.752 | 0.551 | 0.663 | 0.182 | 0.148 | 0.173 | 0.166 | 0.616 | 0.709 | 0.602 | 0.675 | 0.64 | 0.834 | 0.452 | 0.636 | 0.145 | 1.07 | 0.692
3 | NCI-H441 | 0.498 | 0.528 | 0.461 | 0.424 | 0.459 | 0.241 | 0.236 | 0.25 | 0.248 | 0.711 | 0.853 | 0.547 | 0.676 | 0.525 | 0.624 | 0.441 | 0.453 | 0.288 | 0.748 | 0.627
4 | NCI-H460 | 0.796 | 0.788 | 0.936 | 0.741 | 0.72 | 0.0709 | 0.0574 | 0.0584 | 0.0641 | 0.678 | 0.779 | 0.658 | 0.659 | 0.444 | 0.487 | 0.291 | 0.447 | 0.0559 | 0.787 | 0.413
5 | NCI-H520 | 1.04 | 0.959 | 0.979 | 0.753 | 1.04 | 0.625 | 0.669 | 0.586 | 0.637 | 0.71 | 0.91 | 0.64 | 0.764 | 0.376 | 0.31 | 0.322 | 0.331 | 0.803 | 0.694 | 0.33
6 | NCI-H596 | 1.24 | 1.09 | 0.961 | 0.931 | 1.12 | 0.492 | 0.472 | 0.469 | 0.479 | 0.533 | 0.602 | 0.502 | 0.642 | 0.765 | 0.704 | 0.625 | 0.791 | 0.456 | 0.519 | 0.749
7 | NCI-H647 | 1.17 | 1.19 | 1.12 | 1.14 | 1.2 | 0.192 | 0.119 | 0.2 | 0.178 | 0.628 | 0.942 | 0.572 | 0.752 | 0.579 | 0.705 | 0.479 | 0.488 | 0.173 | 0.734 | 0.622
8 | NCI-H650 | 0.906 | 0.867 | 0.992 | 0.883 | 0.895 | 0.943 | 0.993 | 0.893 | 0.945 | 0.466 | 0.393 | 0.389 | 0.465 | 0.413 | 0.437 | 0.303 | 0.388 | 0.935 | 0.465 | 0.349
9 | NCI-H661 | 0.624 | 0.53 | 0.599 | 0.458 | 0.534 | 0.956 | 0.967 | 0.969 | 0.905 | 0.863 | 0.809 | 0.793 | 0.734 | 0.754 | 0.768 | 0.719 | 0.726 | 0.909 | 0.815 | 0.782
10 | NCI-H838 | 1.12 | 0.964 | 1.07 | 0.851 | 0.908 | 0.251 | 0.249 | 0.23 | 0.225 | 0.687 | 0.738 | 0.647 | 0.672 | 0.771 | 0.836 | 0.712 | 0.735 | 0.258 | 0.801 | 0.844
11 | NCI-H1355 | 0.842 | 0.835 | 0.831 | 0.665 | 0.821 | 1.17 | 1.02 | 0.937 | 1 | 0.724 | 0.671 | 0.569 | 0.687 | 0.791 | 0.773 | 0.65 | 0.71 | 1.07 | 0.696 | 0.838
12 | NCI-H1395 | 1.14 | 1.16 | 1.12 |  | 1.14 | 0.975 | 0.945 | 0.729 | 0.843 | 0.726 | 0.826 | 0.618 | 0.701 | 0.475 | 0.474 | 0.424 | 0.439 | 0.779 | 0.714 | 0.474
13 | NCI-H1437 | 1.11 | 1.01 | 1.07 | 1.03 | 0.983 | 0.309 | 0.356 | 0.346 | 0.314 | 0.856 | 0.827 | 0.751 | 0.636 | 0.638 | 0.639 | 0.63 | 0.572 | 0.338 | 0.818 | 0.677
14 | NCI-H1651 | 0.959 | 0.966 | 0.982 | 0.876 | 0.837 | 0.643 | 0.633 | 0.556 | 0.623 | 0.568 | 0.509 | 0.545 | 0.661 | 0.181 | 0.169 | 0.169 | 0.18 | 0.542 | 0.481 | 0.187
15 | NCI-H1666 | 0.947 | 0.92 | 0.811 |  | 0.927 | 1.02 | 0.847 | 1.02 | 0.863 | 0.996 | 1.04 | 0.902 | 1.06 | 0.714 | 0.734 | 0.766 | 0.75 | 0.9 | 1.01 | 0.703
16 | NCI-H1734 | 1.01 | 0.975 | 0.728 |  | 0.945 | 0.438 | 0.429 | 0.426 | 0.42 | 0.842 | 0.865 | 0.728 | 0.799 | 0.633 | 0.654 | 0.492 | 0.574 | 0.479 | 0.798 | 0.722
17 | NCI-H1755 | 0.987 | 1.01 | 0.999 | 0.974 | 0.923 | 0.495 | 0.475 | 0.435 | 0.402 | 0.813 | 0.646 | 0.605 | 0.8 | 0.868 | 0.852 | 0.766 | 0.83 | 0.496 | 0.751 | 0.912
18 | NCI-H1793 | 0.849 | 0.881 | 1.11 | 0.526 | 0.93 | 0.926 | 0.964 | 0.671 | 0.959 | 0.807 | 0.797 | 0.666 | 0.685 | 0.845 | 0.902 | 0.695 | 0.805 | 0.838 | 0.69 | 0.904
19 | NCI-H1915 | 1.1 | 1.04 | 1.08 | 1.06 | 1.08 | 0.491 | 0.552 | 0.538 | 0.452 | 0.538 | 0.516 | 0.468 | 0.482 | 0.292 | 0.258 | 0.208 | 0.26 | 0.478 | 0.563 | 0.25
20 | NCI-H1944 | 1.22 | 1.28 | 1.24 | 0.931 | 1.13 | 0.627 | 0.611 |  | 0.684 | 0.523 | 0.575 |  | 0.579 | 0.412 | 0.448 |  | 0.395 | 0.642 | 0.641 | 0.464
21 | NCI-H1975 | 1.11 | 0.986 | 0.912 | 1.07 | 0.969 | 0.275 | 0.299 | 0.288 | 0.29 | 0.742 | 0.66 | 0.697 | 0.694 | 0.731 | 0.804 | 0.722 | 0.806 | 0.313 | 0.711 | 0.78
22 | NCI-H1993 | 0.808 | 0.801 | 0.765 | 0.703 | 0.682 | 0.669 | 0.634 |  | 0.542 | 0.811 | 0.853 |  | 0.784 | 1.11 | 1.13 |  | 1.09 | 0.5 | 1.21 | 0.831
23 | NCI-H2009 | 1.18 | 1.21 | 1.12 | 1.25 | 1.15 | 1.1 | 1.01 | 1.14 | 0.957 | 0.712 | 0.693 | 0.707 | 0.628 | 0.745 | 0.67 | 0.644 | 0.625 | 1.14 | 0.754 | 0.643
24 | NCI-H2023 | 0.711 | 0.677 | 0.697 | 0.648 | 0.698 | 0.235 | 0.242 | 0.256 | 0.204 | 0.818 | 0.781 | 0.541 | 0.648 | 0.444 | 0.437 | 0.374 | 0.492 | 0.283 | 0.705 | 0.5
25 | NCI-H2085 | 1.01 | 0.87 | 0.781 | 0.921 | 1.07 | 0.963 | 0.911 | 1.14 | 0.906 | 0.832 | 0.841 | 0.865 | 0.727 | 0.739 | 0.738 | 0.849 | 0.761 | 0.935 | 0.787 | 0.823
26 | NCI-H2087 | 1.06 | 0.891 | 0.85 | 0.984 | 0.883 | 0.637 | 0.696 | 0.636 | 0.754 | 0.646 | 0.719 | 0.744 | 0.868 | 0.563 | 0.524 | 0.53 | 0.637 | 0.702 | 0.546 | 0.674
27 | NCI-H2126 | 0.761 | 0.802 | 0.709 | 0.585 | 0.712 | 0.649 | 0.616 | 0.676 | 0.768 | 0.884 | 0.79 | 0.585 | 0.758 | 0.895 | 0.914 | 0.84 | 0.959 | 0.743 | 0.855 | 0.981
